US20090105206A1, “Copper Melphalan And Copper Tegafur As Anti-Tumor Agents” (priority 2004, published 2009)
Where “and” joins values, the source holds several entries; their conditions need not be identical. Equal entries are not always repeated.

Assays:
[1] = tested on: murine renal cell carcinoma (RENCA) tumor cells applied orthotopically; assay: Example 3: murine renal cell carcinoma model (RENCA), substance Day 10-18; assay type: in vivo, Balb/c mouse; settings: 5 and 7.5 mg/kg per day i.p., Day 10-18, findings Day 19
Experimental: Using a murine renal cell carcinoma model (RENCA) of the Balb/c mouse a test of the effectiveness of mel-Cu-mel was carried out on the primary tumor, the metastases and the vessel density. For this the tumor cells were applied orthotopically into the left-hand peri-renal capsule of syngenic mice, the administered dose per day of treatment being: 5 mg/kg mouse and 7.5 mg/kg mouse, 5 animals per dose plus 5 animals for solvent control. The anti-tumor agent according to the invention Cu(mel)2 was applied intraperitonial. The treatment model was as follows:
As a control 5 animals were used to which no active ingredient was administered and for comparison a group of 5 animals were administered melphalan alone.

[2] = tested on: murine renal cell carcinoma (RENCA) tumor cells applied orthotopically; assay: Example 5: orthotopic RENCA model, late treatment from Day 10; assay type: in vivo, Balb/c mouse; settings: for Kidney weight / Lung weight / Number of intestinal lymph node metastases / Number of lung metastases (late treatment day 10-14) / Kidney volume: day 18, individual animals; for Vessel density, later start of treatment day 10-14: individual sections
Experimental: (§1) The tests were carried out on a murine renal cell carcinoma model (RENCA) of the Balb/c mouse. The tumor cells were applied orthotopically into the left-hand renal capsule of syngenic mice. The effect of the treatment carried out on a primary tumor (in the implanted kidney), metastases (predominantly in the lungs, spleen and intestinal lymph nodes) and vessel density were investigated.
(§2) After anesthesia by means of isoflurane narcosis (O2— flow approx. 2.0 l with 0.5-1.5% isoflurane) a small incision was made in the mouse's left flank. The kidney was prepared and presented free from the peritoneum. A 27 G needle was introduced via the lower kidney pole through to below the renal capsule with visual inspection, and […] in 70 μl aliquots respectively applied once. The occurrence of a visible liquid-filled blister between kidney parenchyma and renal capsule and the discoloration of the kidneys were regarded as criteria for successful application. The kidney was subsequently reset and the incision into the abdominal wall closed by means of fascia stitches and cutaneous stitches with absorbable stitching material. Five test groups with ten animals respectively were formed. Group 1 negative control, group 2 positive control melphalan (Glaxo), group 3 and 4 MOC melphalan 2.5 mg/kg and 5 mg/kg. In the case of group 5 an antiangiogenically effective substance was applied as the positive control. The start of treatment was fixed for day 1 post op. for Cu(melphalan)2. Treatment was carried out daily up to day seven (see treatment model). The test was ended after 19 days since, owing to their size, the control tumors required termination for ethical reasons.
(§3) After selecting the animals the tissues to be examined were quickly transferred into liquid nitrogen and then frozen at −80° C. 5-10 μm thick sections were prepared from the tissue parts. The preparations were immunohistochemically dyed with an anti-CD31 antibody (Pecam-1) and the number of vessels in the control and treatment groups counted. Two sections of each tumor with three areas respectively were used for counting the vessels.
The study report matches that of Example 4, differing only in terms of treatment intervals and dose groups. Four test groups with ten animals respectively were formed. Group 1 negative control, group 2 positive control melphalan (Glaxo), groups 3 and 4 Cu(melphalan)2 5 mg/kg and 7.5 mg/kg. The start of treatment was fixed for day 10 post op. for all groups. The intention was for daily treatment from day 10 until day 17 (see treatment model). Owing to toxicities the treatment period was reduced to day 10-14. After 18 days the test was ended since, owing to their size, the control tumors required termination for ethical reasons.
• The implantation day was counted as day 0. • Duration of the test 18 days. • Number of animals at beginning of test 40; no animals died during the op.

[3] = tested on: murine renal cell carcinoma (RENCA) tumor cells applied orthotopically; assay: Example 4: orthotopic renal cell carcinoma model (RENCA), treatment Day 1-7; primary tumor, metastases, vessel density (anti-CD31); assay type: in vivo, Balb/c mouse; settings: for Kidney weight / Lung weight / Number of intestinal lymph node metastases / Number of lung metastases: day 19; for Kidney weight / Lung weight / Number of intestinal lymph node metastases / Number of lung metastases / Kidney volume: individual animals; for Kidney volume: test ended day 19
Experimental: as §1, §2
• The implantation day was counted as day 0. • Duration of the test 19 days. • Number of animals at beginning of test 50, no animals died during the op.
as §3

[4] = Cu(melphalan)2 8.8 μmol/kg (5 mg/kg) i.p. Day 10-14
[5] = Cu(melphalan)2 13.2 μmol/kg (7.5 mg/kg/d) i.p. Day 10-14
[6] = Cu(melphalan)2 4.4 μmol/kg (2.5 mg/kg) i.p. Day 1-7
[7] = Cu(melphalan)2 8.8 μmol/kg (5 mg/kg/d) i.p. Day 1-7
[8] = dose of 2.5 mg/kg and 5 mg/kg, Day 1-7 i.p.

In the case of N[C@@H](Cc1ccc(N(CCCl)CCCl)cc1)C(=O)[O-].N[C@@H](Cc1ccc(N(CCCl)CCCl)cc1)C(=O)[O-].O.O.[Cu+2] [Cu(melphalan)2], the “kidney weight and kidney volume compared with the control (FIG. 5)” value [1] was “significantly lower kidney weight and kidney volume”, the “lung weight compared with the control and with melphalan alone (FIG. 6)” value [1] was “reduced” and the Kidney weight [2, 4] was 1.70 gr and 1.78 gr (2×) and 1.88 gr and 1.23 gr and 0.75 gr and 1.56 gr. The Lung weight [2, 4] was 0.11 gr (2×) and 0.14 gr and 0.15 gr and 0.13 gr (2×) and 0.21 gr, the “Number of intestinal lymph node metastases” value [2, 4] was 20 and 40 and 36 and 12 and 64 and 51 and 75 and the “Number of lung metastases (late treatment day 10-14)” value [2, 4] was 28 and 0 (2×) and 21 and 345 and 431 and 750. For the same compound, the “Vessel density, later start of treatment day 10-14” value [2, 4] was 44 (2×) and 38 and 34 and 56 (2×) and 46 and 26 and 51 and 72 and 25 and 35 and 40 and 31, the Kidney volume ([2]; Cu(melphalan)2 8.8 μmol/kg (5 mg/kg) i.p. from Day 10 (planned 10-17, reduced to 10-14)) was 3.12 cm^3 and 2.60 cm^3 and 2.63 cm^3 and 2.08 cm^3 and 2.90 cm^3 and 1.96 cm^3 and 2.76 cm^3 and the Kidney weight [2, 5] was 1.37 gr and 2.39 gr and 0.26 gr and 1.90 gr and 1.05 gr and 0.27 gr and 1.92 gr and 0.46 gr and 2.50 gr and 0.74 gr. For the same compound, the Lung weight [2, 5] was 0.11 gr and 0.13 gr (2×) and 0.10 gr, the “Number of intestinal lymph node metastases” value [2, 5] was 0 and the “Number of lung metastases (late treatment day 10-14)” value [2, 5] was 0 (4×) and 3 and 77 and 750 and 300 and 4 and 10. For the same compound, the “Vessel density, later start of treatment day 10-14” value [2, 5] was 35 (2×) and 52 and 58 and 43 and 48 and 65 and 53, the Kidney volume ([2]; Cu(melphalan)2 13.2 μmol/kg (7.5 mg/kg/d) i.p. from Day 10 (planned 10-17, reduced to 10-14)) was 1.96 cm^3 and 3.08 cm^3 and 0.60 cm^3 and 2.60 cm^3 and 1.98 cm^3 and 0.91 cm^3 and 3.06 cm^3 and 1.22 cm^3 and 3.33 cm^3 and 1.68 cm^3 and the “antiangiogenic effect (vessel density)” value ([2]; dose of 8.8 μmol/kg, Day 10-14) was “significantly antiangiogenic”. For the same compound, the “anti-metastatic effect, lung metastases and lymph node metastases” value ([2]; dose of 13.2 μmol/kg, Day 10-14) was “significant anti-metastatic effect”, the “anti-tumoral effect against the primary tumor” value ([2]; dose of both 8.8 μmol/kg and 13.2 μmol/kg, Day 10-14) was “significant anti-tumoral effect” and the chemical stability (blue solid) was “chemically stable”. The “effectiveness compared with melphalan” value (investigations of kidney cell carcinoma and lung metastases formation) was “much more effective than melphalan”, the Kidney weight [3, 6] was 0.78 gr and 2.00 gr and 0.81 gr and 0.38 gr and 1.58 gr and 1.02 gr and 1.28 gr and 1.06 gr and 1.15 gr and 0.29 gr and the Lung weight [3, 6] was 0.20 gr and 0.31 gr and 0.49 gr and 1.07 gr and 0.11 gr (2×) and 0.14 gr and 0.24 gr and 0.13 gr (2×). For the same compound, the “Number of intestinal lymph node metastases” value [3, 6] was 1 and 2 and 3 and 4 and 0 (5×) and 6, the “Number of lung metastases” value [3, 6] was 378 and >750 (4×) and 9 and 49 and 29 and 3 and 570 and the Kidney volume [3, 6] was 1.54 cm^3 and 2.2 cm^3 and 1.2 cm^3 and 0.96 cm^3 and 2.13 cm^3 and 1.53 cm^3 and 1.71 cm^3 (2×) and 1.80 cm^3 and 0.60 cm^3. The Kidney weight [3, 7] was 0.79 gr (2×) and 0.19 gr and 1.06 gr and 0.59 gr and 0.85 gr and 0.74 gr and 0.18 gr and 0.29 gr and 0.36 gr, the Lung weight [3, 7] was 0.14 gr (2×) and 0.16 gr and 0.15 gr and 0.11 gr and 0.21 gr and 0.31 gr and 0.22 gr and 0.18 gr and 0.13 gr and the “Number of intestinal lymph node metastases” value [3, 7] was 0 (8×) and 4 and 2. The “Number of lung metastases” value [3, 7] was 11 and 4 (2×) and 162 and 0 and 680 and 16 and 610 and 92 and 7, the Kidney volume [3, 7] was 1.24 cm^3 and 0.44 cm^3 and 1.5 cm^3 and 1.2 cm^3 and 1.33 cm^3 and 1.30 cm^3 and 1.12 cm^3 and 0.6 cm^3 and 0.64 cm^3 and 1.26 cm^3 and the “effectiveness compared with melphalan” value ([3]; approximately quarter-equimolar dose (2.5 mg/kg, 4.4 μmol/kg vs 16.4 μmol/kg melphalan)) was “Effectiveness comparable with melphalan”. The “effectiveness compared with melphalan alone” value ([3]; approximately semi-equimolar dose (5 mg/kg, 8.8 μmol/kg vs 16.4 μmol/kg melphalan)) was “better effectiveness than melphalan alone”, the “anti-metastatic effect, intestinal lymph node metastases” value [3, 8] was “significant anti-metastatic effect” and the “anti-tumor effect (primary tumor)” value [3, 8] was “significant anti-tumor effect”. The “anti-metastatic effect, lung metastases” value ([3]; dose of 5 mg/kg, Day 1-7 i.p.) was “significant anti-metastatic effect”.
